Results from patent publication US20250019357A1, “[…] MORPHIC FORMS AND MIXTURES FOR THE TREATMENT OF MENTAL DISORDERS OR MENTAL ENHANCEMENT” (TACTOGEN INC, priority 2021, published 2025).
Structures can show the parent of a compound that is named as a salt. Where two headings read alike, the source gives them in different places.

Experiments:
[1] = molecular target: 5-HT1BR (Homo sapiens (Human), UniProt P28222); assay type: cell-based; settings: for Hill Coef.: 5-HT1BR agonist curve; for EC50: Table 3
[2] = Scale-up and solid-state stability study; assay type: physicochemical; settings: ~10 mg staged at 40° C./75% RH for 1 day, analyzed by PXRD
Method: Scale up study of selected S-5-MAPB salts (Patterns 1A, 2A, and 10A) to −70 mg was completed. […] All three samples were then tested for their solid-state stability as shown below in Table 17. (API=5-MAPB HCl)
Scale up study of selected salts (S-5-MAPB Patterns 1A, 4A, and 8A) to −250 mg completed. Patterns 1A, 4A, and 8A were all scaled up successfully. All three samples were then tested for their solid-state stability as shown below in Table 19. (API=S-5-MAPB Pure Enantiomer)

[3] = molecular target: T1, SERT (Rattus norvegicus (Rat), UniProt P31652); assay: In vitro rat synaptosome serotonin release (efflux) assay (Examples 9, 58); assay type: biochemical; settings: rat synaptosomes
Excerpt: FIG. 7B is a graph showing results from an in vitro rat synaptosome serotonin release assay. […] Details and procedural information for this assay are described in Example 9. The x-axis is the log [dose] concentration measured in molar and the y-axis is the [^3H]-labeled 5-HT release measured in percent.
FIG. 177 is a graph showing results from an in vitro rat synaptosome serotonin release assay. […] Details and procedural information for this assay are described in Example 58. The x-axis the log [dose] concentration measured in molar and the y-axis is the [^3H]-labeled 5-HT release measured in percent.

[4] = molecular target: T1, SERT; assay: In vitro rat synaptosome serotonin uptake inhibition assay (Examples 9, 58); assay type: biochemical; settings: rat synaptosomes
Excerpt: FIG. 7A is a graph showing results from an in vitro rat synaptosome serotonin uptake inhibition assay. […] Details and procedural information for this assay are described in Example 9. The x-axis is the log [dose] concentration measured in molar and the y-axis is the [^3H]-labeled 5-HT reuptake measured in percent.
FIG. 176 is a graph showing results from an in vitro rat synaptosome serotonin uptake inhibition assay. […] Details and procedural information for this assay are described in Example 58. The x-axis the log [dose] concentration is measured in Molar units and the y-axis is the [^3H]-labeled 5-HT reuptake measured in percent of maximum produced by the comparison releaser.

[5] = molecular target: human 5-HT transporter (hSERT) (Homo sapiens (Human), UniProt P31645); assay: Human serotonin transporter  assay ([3H]imipramine radioligand, CHO cells); assay type: binding
Method: EXAMPLE 8: Human Serotonin Transporter (SERT, SLC6A4) Functional Antagonist Uptake Assay
Benzofuran derivatives were evaluated for inhibiting the human 5-HT transporter (hSERT) as expressed in CHO cells using an antagonist radioligand assay (Tatsumi, M. et al. (1999), Eur. J. Pharmacol., 368: 277-283). […] Test compounds were assayed in three trials at […], and 0.94868 μM.
EXAMPLE 57: Human Serotonin Transporter (SERT, SLC6A4) Functional Antagonist Uptake Assay

[6] = molecular target: serotonin (5-HT) transporter (SERT) (Rattus norvegicus (Rat), UniProt P31652); assay: Rat synaptosome SERT uptake inhibition assay ([3H]5-HT); settings: read-out: Inhibition of [3H]5-HT Uptake at SERT IC50; rat brain synaptosomes, 5 nM [3H]5-HT
[7] = Human self-reported effects of non-racemic 5-MAPB (Good, Bad, Open ratings); assay type: in vivo
Method: The effects of non-racemic 5-MAPB HCl were tested by a healthy human individual at four different ratios of enantiomers plus the racemate as a control: • 54 mg S and 0 mg R (100% S) • 47 mg S and 7 mg R (about 87% S) • 36 mg S and 18 mg R (about 67% S) • 27 mg S and 27 mg R (about 50% S) • 7 mg S and 47 mg R (about 13% S)
Two trials were carried out at each ratio, except for 13% S where only one was conducted. Trials were at least 72 h apart.
5-MAPB HCl was dissolved in 1.5 ml distilled water and consumed in two halves, separated by 1 hour. Starting at 3 hours after administration, tablets of 250 mg ascorbic acid and capsules of 300 mg alpha lipoic acid were taken ad libitum (approximately every hour for a total of 4 administrations).
Measurements were made approximately every 2 hours until post 6 hours and the maximum ratings per session were analyzed. Additionally, an index of good drug effects versus emotional openness, calculated as (Open−Good)/(200, the theoretical maximum of Open+ Good), was constructed at each time point and the maximum analyzed. In healthy volunteers, Good Ratings can be considered a predictor of abuse liability. Accordingly, this index can be used as an indicator of the balance of a therapeutic effect (emotional openness) vs abuse liability.
Historic data of two trials 50 mg RS-5-MAPB Cl from the same individual were also included in the analysis for comparison.
Table 24 below indicates maximums for individual measures and for the open vs good index, averaged from all sessions (N=2, except for 13% S-5-MAPB where N=1). Qualitatively, all conditions produced subtle emotional effects, including decreases in negative affect and increases in stability of mood, without sensory distortion.

[8] = molecular target: Human Trace Amine Associated Receptor (hTAAR1) (Homo sapiens (Human), UniProt Q96RJ0); assay: hTAAR1 agonist assay (DiscoverX cAMP Hunter); assay type: cell-based; settings: positive control
[9] = S-5-MAPB salt scale-up (~250 mg, API=S-5-MAPB Pure Enantiomer)
[10] = Cheng Prusoff equation, read-out: SERT Ki
[11] = one healthy human, 54 mg total 5-MAPB HCl oral in two halves 1 hour apart, session maximum averaged (N=2, 13% S N=1)
[12] = S-5-MAPB salt scale-up (~70 mg, API=5-MAPB HCl)

CNC(C)C(=O)c1ccc2occc2c1 (racemic) [rac-BK-5-MAPB, 1-(benzofuran-5-yl)-2-(methylamino)propan-1-one hydrochloride]
Hill Coef. [1]: 0.91

CCC(NC)C(=O)c1ccc2occc2c1 (racemic) [rac-BK-5-MBPB, 1-(benzofuran-5-yl)-2-(methylamino) butan-1-one]
Hill Coef. [1]: 1.01

CNC(C)C(=O)c1ccc2ccoc2c1 (racemic) [rac-BK-6-MAPB, 1-(benzofuran-6-yl)-2-(methylamino)propan-1-one hydrochloride]
Hill Coef. [1]: 0.99

CN[C@@H](C)Cc1ccc2occc2c1.O=P(O)(O)O (single isomer, unassigned) [H3PO4 (Pattern 4A), 5-MAPB Enantiomer H3PO4]
PXRD Pattern (40° C./75% RH sample) [2, 9]: 4A

CN[C@@H](C)Cc1ccc2occc2c1.O=C(O)C(=O)O (single isomer, unassigned) [Oxalic (Pattern 8A), 5-MAPB Enantiomer oxalic acid]
PXRD Pattern (40° C./75% RH sample) [2, 9]: 8A

CNC(C)C(=O)c1ccc2occc2c1 (single isomer, unassigned; (+)) [(+)-Bk-5-MAPB, 1-(benzofuran-5-yl)-2-(methylamino) propan-1-one]
Hill Coef. [1]: 1.05 | [3H]-labeled 5-HT release [3]: rapidly increases extracellular serotonin by stimulating release | [3H]-labeled 5-HT reuptake (serotonin uptake inhibition) [4]: rapidly increases extracellular serotonin by inhibiting reuptake

CNC(C)C(=O)c1ccc2ccoc2c1 (single isomer, unassigned; (+)) [(+)-Bk-6-MAPB, 1-(benzofuran-6-yl)-2-(methylamino) propan-1-one]
[3H]-labeled 5-HT release [3]: rapidly increases extracellular serotonin by stimulating release | [3H]-labeled 5-HT reuptake (serotonin uptake inhibition) [4]: rapidly increases extracellular serotonin by inhibiting reuptake | IC50 [5]: 110000 nM | Ki [5]: 51000 nM

CCC(NC)C(=O)c1ccc2occc2c1 (single isomer, unassigned; (-)) [(−)-BK-5-MBPB, 1-(benzofuran-5-yl)-2-(methylamino) butan-1-one]
Hill Coef. [1]: 1.6241

CNC(C)C(=O)c1ccc2occc2c1 (single isomer, unassigned; (-)) [(−)-Bk-5-MAPB, 1-(benzofuran-5-yl)-2-(methylamino) propan-1-one]
Hill Coef. [1]: 1.5 | [3H]-labeled 5-HT release [3]: rapidly increases extracellular serotonin by stimulating release | [3H]-labeled 5-HT reuptake (serotonin uptake inhibition) [4]: rapidly increases extracellular serotonin by inhibiting reuptake

CNC(C)C(=O)c1ccc2ccoc2c1 (single isomer, unassigned; (-)) [(−)-Bk-6-MAPB, 1-(benzofuran-6-yl)-2-(methylamino) propan-1-one]
Hill Coef. [1]: 0.8339 | [3H]-labeled 5-HT release [3]: rapidly increases extracellular serotonin by stimulating release | [3H]-labeled 5-HT reuptake (serotonin uptake inhibition) [4]: rapidly increases extracellular serotonin by inhibiting reuptake

CN[C@H](C)Cc1ccc2ccoc2c1 (stereo in doubt) [Pattern R-6-MAPB, 1-(benzofuran-6-yl)-N-methylpropan-2-amine]
Hill Coef. [1]: 1.14 | EC50 [1]: 1480 nM | IC50 [6]: 623 ± 31.2 nM | [3H]-labeled 5-HT release [3]: rapidly increases extracellular serotonin by stimulating release | [3H]-labeled 5-HT reuptake (serotonin uptake inhibition) [4]: rapidly increases extracellular serotonin by inhibiting reuptake | Ki [5, 10]: 11000 nM

CN[C@@H](C)Cc1ccc2occc2c1 [100% S-5-MAPB]
duration of effects ([7]; healthy human individual, 54 mg S and 0 mg R): effects of less duration than conditions that included the R-enantiomer | Bad (bad drug effects), maximum 0-100 rating [7, 11]: 1% | Good (good drug effects), maximum 0-100 rating [7, 11]: 55% | Open (emotional openness), maximum 0-100 rating [7, 11]: 65%

Br.CNC(C)Cc1ccc2occc2c1 (stereo not shown) [HBr (Pattern 2A), 5-MAPB HBr]
PXRD Pattern (40° C./75% RH sample) [2, 12]: Pattern 2B

CNC(C)Cc1ccc2occc2c1.Cl (stereo not shown) [HCl (Pattern 1A), 5-MAPB HCl]
PXRD Pattern (40° C./75% RH sample) [2, 12]: Pattern 1A | PXRD Pattern (40° C./75% RH sample) [2, 9]: 1A

CNC(C)Cc1ccc2occc2c1.O=C(O)/C=C\C(=O)O (stereo not shown) [Maleic (Pattern 10A), 5-MAPB maleic acid]
PXRD Pattern (40° C./75% RH sample) [2, 12]: 10A

CN[C@H](C)Cc1ccc2occc2c1 [Pattern R-5-MAPB, R-5-MAPB]
Hill Coef. [1]: 1.13 | EC50 [1]: 981 nM | IC50 [6]: 150 ± 8.6 nM | [3H]-labeled 5-HT release [3]: rapidly increases extracellular serotonin by stimulating release | [3H]-labeled 5-HT reuptake (serotonin uptake inhibition) [4]: rapidly increases extracellular serotonin by inhibiting reuptake | Ki [5, 10]: 1200 nM

CN[C@@H](C)Cc1ccc2occc2c1 [Pattern S-5-MAPB, S-5-MAPB]
Hill Coef. [1]: 1.08 | EC50 [1]: 161 nM | IC50 [6]: 60.4 ± 2.8 nM | [3H]-labeled 5-HT release [3]: rapidly increases extracellular serotonin by stimulating release | [3H]-labeled 5-HT reuptake (serotonin uptake inhibition) [4]: rapidly increases extracellular serotonin by inhibiting reuptake | Ki [5, 10]: 1500 nM

CN[C@@H](C)Cc1ccc2ccoc2c1 [Pattern S-6-MAPB, S-6-MAPB]
Hill Coef. [1]: 1.21 | EC50 [1]: 102 nM | IC50 [6]: 90.9 ± 5.9 nM | [3H]-labeled 5-HT release [3]: rapidly increases extracellular serotonin by stimulating release | [3H]-labeled 5-HT reuptake (serotonin uptake inhibition) [4]: rapidly increases extracellular serotonin by inhibiting reuptake | Ki [5, 10]: 3100 nM

CCC(Cc1ccc2occc2c1)NC (stereo not shown) [RS-5-MBPB, 1-(benzofuran-5-yl)-N-methylbutan-2-amine]
[3H]-labeled 5-HT release [3]: rapidly increases extracellular serotonin by stimulating release | [3H]-labeled 5-HT reuptake (serotonin uptake inhibition) [4]: rapidly increases extracellular serotonin by inhibiting reuptake

NCCc1ccc(O)cc1 [p-Tyramine, reference compound]
EC50 [8]: 1140 nM | hTAAR1 Hill constant [8]: 0.7453
